Measurements: US20260068882A1, “ARTHROPOD CONTROLLING COMPOSITION” (Firmenich SA, priority 2019, published 2026)
Where a name gives a salt, the structure may show the parent alone. Read-outs that look alike come from different tables or passages of the source.

Columns and labels:
Aedes aegypti = assay: In vitro Warm Body assay, mosquitoes landing on treated warm body; format: in vivo; settings: for pest or weed control at 0.04 % / pest or weed control at 0.0016 %: Aedes aegypti, read-out: decrease of landings; for % of mosquitoes' repellency: normalised to landing with 100% ethanol
Description: (§1) The arthropod controlling effect according to the present invention is determined on mosquitoes using an adapted Warm Body assay as defined in Kröber T, Kessler S, Frei J, Bourquin M, Guerin P M. An in vitro assay for testing mosquito controlling compounds employing a warm body and carbon dioxide as a behavioral activator. J Am Mosq Control Assoc. 2010; 26:381-386.
(§2) The controlling effect according to the present invention is determined by testing the Warm Body assay against the yellow fever mosquito, Aedes aegypti Rockefeller strain. […] Observations of controlling efficacy were made on host-seeking females of uniform age, 5 to 10 days old selected as mentioned in the publication mentioned hereinabove. Tested hungry females had access to 10% sugar solution but were not blood-fed.
(§3) The published protocol has been adapted in not manually counting the landing mosquitoes but automatically using an automatic counting software, the switch from Anopheles gambiae to A. aegypti led to a decrease of mosquitoes' number placed in the tested cage due to the size difference (i.e. 30 mosquitoes instead of 50) and to an increase of lighting as A. aegypti is a diurnal mosquitoes (i.e. 150 lux instead of 4 lux).
as §2, with “A.” for “Aedes”
as §1, with “The” for “The arthropod”, “was assessed” for “is determined on mosquitoes”
as §3, with “Aedes” for “A.”
In this in-vitro assay the number of A. aegypti landing on a warm body treated with the tested stimuli was measured in order to assess the repellency effect. Three replicates were carried on the three different doses: 0.0016%, 0.04% and 1% in ethanol, using 25 A. aegypti 10-12 days old females per cage.
In this in-vitro assay, the number of Aedes aegypti landing on a warm body treated with the tested stimuli was measured in order to assess the repellency effect. Three replicates were carried on the three different doses: 0.0016%, 0.04% and 1% in ethanol.
In this in-vitro assay, the number of Aedes aegypti landing on a warm body treated with the tested stimuli was measured in order to assess the repellency effect. One replicate was carried at different doses ranging from 0.0016% up to 1% in ethanol.

Ixodes ricinus = assay: In vitro Warm Plate Assay for ticks; format: in vivo
Description: Repellent efficacy of the different compounds was assessed against the sheep tick, Ixodes ricinus. I. ricinus is one of the recommended model organisms mentioned by the Guidance on the European Biological Products Regulation [Vol II, Efficacy-Assessment & Evaluation (Parts B+C), v. 3.0, April 2018]. Observations of repellent efficacy were made on last stage nymphs.
The repellent efficacy was assessed using the protocol of the in-vitro Warm Plate Assay as defined in Kröber T, Bourquin M, Guerin P M. A standardized in vivo and in vitro test method for evaluating tick repellents. Pesticide Biochemistry and Physiology. 2013; 107 (2): 160-168.].
The mean±SD number of ticks Ixodes ricinus walking down (affected), falling (affected) or walking-up (non affected) from the warm plate treated with ethanol, N,N-diethyl-3-methylbenzamide, (2,5-dimethyl-2,3-dihydro-1H-inden-2yl)methanol (Ingredient 2) or (2,4,6-trimethyl-2,3-dihydro-1H-inden-2-yl)methanol (Ingredient 1) diluted in ethanol at 0.4 mg/ml and 10 mg/mL was assessed on n groups of 12 ticks (n=2-5).
In this in-vitro assay, the percentage of ticks Ixodes ricinus affected by the stimulus loaded on the warm plate was measured in order to assess the repellency effect. Twelve ticks were assessed per concentrations that goes from 0.0016% up to 1% in ethanol.
Using the same in-vitro setup, the effect on ticks behavior (n≥12) of different stimuli diluted in ethanol at 20% (w/w) was assessed overtime.

[1] = Ixodes ricinus, 0.0016% (Table 11), read-out: percentage of ticks affected on the Warm Plate
[2] = Ixodes ricinus, 0.04% (Table 11), read-out: percentage of ticks affected on the Warm Plate
[3] = Ixodes ricinus, 1% (Table 11), read-out: percentage of ticks affected on the Warm Plate
[4] = Ixodes ricinus, 0.04% (Table 10), read-out: percentage of ticks affected on the Warm Plate
[5] = Ixodes ricinus, 0.2% (Table 10), read-out: percentage of ticks affected on the Warm Plate
[6] = Ixodes ricinus, 1% (Table 10), read-out: percentage of ticks affected on the Warm Plate

Cc1cc(C)c2c(c1)CC(C)(CO)C2 (racemic) [ingredient #1, (2,4,6-trimethyl-2,3-dihydro-1H-inden-2-yl)methanol]
mosquitoes landing on the warm body (Aedes aegypti; 1% in ethanol (FIG. 8)): no mosquito landed
pest or weed control at 0.04 % (Aedes aegypti): 88%
MEAN % affected (ticks) (Ixodes ricinus; 0.4 mg/mL in ethanol (Table 5)): 67%
MEAN % affected (ticks) (Ixodes ricinus; 10 mg/mL in ethanol (Table 5)): 100%
ticks non-affected over 12 (in words) (Ixodes ricinus; 0.04%): three and five ticks over 12 being non-affected
ticks affected / not affected over 12 (in words) (Ixodes ricinus; 1%): all the ticks being affected
pest or weed control at 0.0016 % (Ixodes ricinus; [1]): 20%
pest or weed control at 0.0016 % (Ixodes ricinus; Ixodes ricinus, 0.0016% in ethanol (Table 12), read-out: percentage of ticks affected on the Warm Plate): 20%
pest or weed control at 0.0053 % (Ixodes ricinus; Ixodes ricinus, 0.0053% in ethanol (Table 12), read-out: percentage of ticks affected on the Warm Plate): 7%
pest or weed control at 0.008 % (Ixodes ricinus; Ixodes ricinus, 0.008% in ethanol (Table 12), read-out: percentage of ticks affected on the Warm Plate): 8%
pest or weed control at 0.0119 % (Ixodes ricinus; Ixodes ricinus, 0.0119% in ethanol (Table 12), read-out: percentage of ticks affected on the Warm Plate): 23%
pest or weed control at 0.0178 % (Ixodes ricinus; Ixodes ricinus, 0.0178% in ethanol (Table 12), read-out: percentage of ticks affected on the Warm Plate): 0%
pest or weed control at 0.0267 % (Ixodes ricinus; Ixodes ricinus, 0.0267% in ethanol (Table 12), read-out: percentage of ticks affected on the Warm Plate): 7%
pest or weed control at 0.04 % (Ixodes ricinus; [2]): 57%
pest or weed control at 0.04 % (Ixodes ricinus; Ixodes ricinus, 0.04% in ethanol (Table 12), read-out: percentage of ticks affected on the Warm Plate): 57%
pest or weed control at 0.0598 % (Ixodes ricinus; Ixodes ricinus, 0.0598% in ethanol (Table 12), read-out: percentage of ticks affected on the Warm Plate): 13%
pest or weed control at 0.089 % (Ixodes ricinus; Ixodes ricinus, 0.089% in ethanol (Table 12), read-out: percentage of ticks affected on the Warm Plate): 41%
pest or weed control at 0.2 % (Ixodes ricinus; Ixodes ricinus, 0.2% in ethanol (Table 12), read-out: percentage of ticks affected on the Warm Plate): 85%
pest or weed control at 0.447 % (Ixodes ricinus; Ixodes ricinus, 0.447% in ethanol (Table 12), read-out: percentage of ticks affected on the Warm Plate): 92%
pest or weed control at 1 % (Ixodes ricinus; [3]): 96%
pest or weed control at 1 % (Ixodes ricinus; Ixodes ricinus, 1% in ethanol (Table 12), read-out: percentage of ticks affected on the Warm Plate): 96%

Cc1ccc2c(c1)CC(C)(C(C)O)C2 (stereo not drawn) [1-(2,5-dimethyl-2-indanyl)-1-ethanol]
pest or weed control at 0.04 % (Aedes aegypti): ~70%
pest or weed control at 0.0016 % (Ixodes ricinus; [1]): 15%
pest or weed control at 0.04 % (Ixodes ricinus; [2]): 0%
pest or weed control at 1 % (Ixodes ricinus; [3]): 100%

OCC1Cc2ccccc2C1 [2,3-dihydro-1H-inden-2-ylmethanol]
number of mosquitoes landed on the Warm Body (Aedes aegypti; 0.0016% in ethanol (Table 6)): 32
number of mosquitoes landed on the Warm Body (Aedes aegypti; 0.04% in ethanol (Table 6)): 1
pest or weed control at 0.04 % (Ixodes ricinus; [4]): 29%
pest or weed control at 0.2 % (Ixodes ricinus; [5]): 100%
pest or weed control at 1 % (Ixodes ricinus; [6]): 92%
concentration at which the level of 85% of ticks affected is reached (Ixodes ricinus; Tables 10 and 12): 0.2%

N#CC1Cc2ccccc2C1 [2,3-dihydro-1H-indene-2-carbonitrile]
number of mosquitoes landed on the Warm Body (Aedes aegypti; 0.0016% in ethanol (Table 6)): 59
number of mosquitoes landed on the Warm Body (Aedes aegypti; 0.04% in ethanol (Table 6)): 13
pest or weed control at 0.04 % (Ixodes ricinus; [4]): 29%
pest or weed control at 0.2 % (Ixodes ricinus; [5]): 71%
pest or weed control at 1 % (Ixodes ricinus; [6]): 100%

COCC1(C)Cc2ccc(C)cc2C1 (stereo not drawn) [(2,5-dimethyl-2,3-dihydro-1H-inden-2-yl)methyl methyl ether]
decrease of the number of landing (Aedes aegypti; 1% in ethanol (FIG. 9)): 86%
pest or weed control at 0.0016 % (Aedes aegypti): 4 to 29%
pest or weed control at 0.0016 % (Ixodes ricinus; [1]): 0%
pest or weed control at 0.04 % (Ixodes ricinus; [2]): 17%
pest or weed control at 1 % (Ixodes ricinus; [3]): 79%

Cc1ccc2c(c1)CC(C)(COC=O)C2 (stereo not drawn) [(2,5-dimethyl-2-indanyl)methyl formate]
pest or weed control at 0.0016 % (Aedes aegypti): 4 to 29%
pest or weed control at 0.0016 % (Ixodes ricinus; [1]): 0%
pest or weed control at 0.04 % (Ixodes ricinus; [2]): 7%
pest or weed control at 1 % (Ixodes ricinus; [3]): 85%

CC1(CO)Cc2ccccc2C1 [(2-methyl-1,3-dihydroinden-2-yl)methanol]
number of mosquitoes landed on the Warm Body (Aedes aegypti; 0.0016% in ethanol (Table 6)): 65
number of mosquitoes landed on the Warm Body (Aedes aegypti; 0.04% in ethanol (Table 6)): 16
number of mosquitoes landed on the Warm Body (Aedes aegypti; 1% in ethanol (Table 6)): 1
pest or weed control at 0.0016 % (Ixodes ricinus; [1]): 0%
pest or weed control at 0.04 % (Ixodes ricinus; [2]): 14%
pest or weed control at 1 % (Ixodes ricinus; [3]): 92%

CCN(CC)C(=O)c1cccc(C)c1 [DEET, N,N-diethyl-3-methylbenzamide, reference compound]
% of mosquitoes' repellency (Aedes aegypti; 0.00032% concentration): 17%
% of mosquitoes' repellency (Aedes aegypti; 0.00071% concentration): 10%
% of mosquitoes' repellency (Aedes aegypti; 0.0016% concentration): 5%
mean ± SD numbers of mosquitoes landed on the Warm Body (Aedes aegypti; 0.0016% dilution (Table 4)): 53.3 ± 12.5
% of mosquitoes' repellency (Aedes aegypti; 0.0036% concentration): 19%
% of mosquitoes' repellency (Aedes aegypti; 0.0053% concentration): 46%
% of mosquitoes' repellency (Aedes aegypti; 0.0080% concentration): 61%
% of mosquitoes' repellency (Aedes aegypti; 0.018% concentration): 79%
% of mosquitoes' repellency (Aedes aegypti; 0.040% concentration): 89%
mean ± SD numbers of mosquitoes landed on the Warm Body (Aedes aegypti; 0.04% dilution (Table 4)): 5.7 ± 1.0
% of mosquitoes' repellency (Aedes aegypti; 0.089% concentration): 97%
% of mosquitoes' repellency (Aedes aegypti; 0.20% concentration): 98%
% of mosquitoes' repellency (Aedes aegypti; 0.45% concentration): 95%
% of mosquitoes' repellency (Aedes aegypti; 1% concentration): 97%
mean ± SD numbers of mosquitoes landed on the Warm Body (Aedes aegypti; 1% dilution (Table 4)): 0.7 ± 0.3
pest or weed control at 0.04 % (Aedes aegypti; 0.04% in ethanol (FIG. 8)): 92%
MEAN % affected (ticks) (Ixodes ricinus; 0.4 mg/mL in ethanol (Table 5)): 50%
MEAN % affected (ticks) (Ixodes ricinus; 10 mg/mL in ethanol (Table 5)): 96%
